# Test results reported in patent publication US20230286973A1, “PROTEIN SECRETION INHIBITORS” (KEZAR LIFE SCIENCES, priority 2020, published 2023).
# Where “and” joins values, the source holds several entries; their conditions need not be identical. Equal entries are not always repeated. Where two headings read alike, the source gives them in different places.
# Legend:
# [1] = tested on: multiple myeloma cell line U266B1; test: U266 Cell Viability Assay; format: cell-based, human; settings: U266B1 cells, Celltiter-Glo
# Outline: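 After growth in serum-supplemented RPMI 1640, cells received serially diluted compound in DMSO/media and were kept 48 hours before a CellTiter-Glo luminescence readout.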
# [2] = Liver Microsome Stability Assay (mouse); settings: mouse liver microsomes, with NADPH, 1.0 uM compound
# Protocol: (§1) Stability of a compound was assessed in the presence of liver microsomes from various sources—mouse, rat, monkey and human liver microsomes. 1.0 uM compound, 0.4% DMSO in 0.1 M Potassium Phosphate with 1.0 mg/mL liver microsomes, were incubated at 37° C. with or without 1 mM NADPH. The samples were quenched at 0, and 30 minutes.
# [3] = tested on: HER3-ss+4aa/Gaussia Luciferase; test: Dox-Induced Her3-ss-Gluc Assay; format: cell-based; settings: 24 hr Dox induction, 293FRT/TO cells, read-out: 24 hr Dox Inducible Her3(ss + 4)Gluc 293FRT/TO: Mean IC50
# Outline: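 Doxycycline-inducible HER3 signal sequence+4aa/Gaussia luciferase construct, stably integrated in Flp-In 293 T-REx cells; compound dilutions applied with doxycycline at 37° C., 5% CO2.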
# [4] = tested on: multiple myeloma cell line NCI-H929; test: H929 Cell Viability Assay; format: cell-based, human; settings: NCI-H929 cells, Celltiter-Glo
# Outline: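 A 48-hour compound treatment of cells in 10% FBS RPMI medium was followed by luciferase-based viability quantification.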
# [5] = Liver Microsome Stability Assay (rat); settings: rat liver microsomes, with NADPH, 1.0 uM compound
# Protocol: as §1
# [6] = tested on: IL-2-FL/Gaussia Luciferase; test: Dox Induced IL2-FL-Gluc Assay; format: cell-based; settings: for IC50: 24 hr Dox induction, 293FRT/TO cells, read-out: 24 hr Dox Inducible IL2FLGluc 293FRT/TO: Mean IC50; for 24 hr Dox Inducible IL2FLGluc 293FRT/TO: IL2/PD1: ratio of IL2FLGluc IC50 to PD1ssGluc IC50
# Outline: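 A hygromycin- and blasticidin-resistant 293 T-REx clone carrying inducible IL-2–Gaussia luciferase (full-length IL-2, residues 1-153) serves as the cell system. After overnight plating, the cells get test compounds together with doxycycline in DMSO/media and are incubated at 37° C, 5% CO2.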
# [7] = Liver Microsome Stability Assay (monkey); settings: monkey liver microsomes, with NADPH, 1.0 uM compound
# Protocol: as §1
# [8] = tested on: PD1-ss+10aa/Gaussia Luciferase; test: Dox-Induced PD1-ss-Gluc Assay; format: cell-based; settings: 24 hr Dox induction, 293FRT/TO cells, read-out: 24 hr Dox Inducible PD1ssGluc 293FRT/TO: Mean IC50
# Outline: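 The cell line was made by transfecting Flp-In 293 T-REx cells with a PD1 signal sequence+10aa–Gaussia luciferase fusion under T-REx control and selecting with hygromycin and blasticidin. Cells were seeded, and next day compound plus doxycycline was added at 37 °C, 5% CO2.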
# [9] = Liver Microsome Stability Assay (human); settings: human liver microsomes, with NADPH, 1.0 uM compound
# Protocol: as §1
# [10] = tested on: TNFα-FL/Gaussia Luciferase; test: Dox Induced TNFα-FL-Gluc Assay; format: cell-based; settings: for IC50: 24 hr Dox induction, 293FRT/TO cells, read-out: 24 hr Dox Inducible TNFaFLGluc 293FRT/TO: Mean IC50; for 24 hr Dox Inducible TNFaFLGluc 293FRT/TO: TNF/PD1: ratio of TNFaFLGluc IC50 to PD1ssGluc IC50
# Outline: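 Hygromycin/blasticidin-selected Flp-In 293 T-REx cells, TNFα-FL/Gaussia luciferase fusion under T-REx control; overnight plating, then compound in DMSO/media with doxycycline at 37 °C, 5% CO2; stereo-undefined structures tested as mixtures.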
# [11] = '<=>' given where both are I.A.
"EC50 ([1]; Homo sapiens, U-266, 48 h) [µM]",Liver Microsome Stability (Multiple Species): Mouse - % Remaining after 30 min w/NADPH [2],IC50 [3],"EC50 ([4]; Homo sapiens, NCI-H929, 48 h) [µM]",Liver Microsome Stability (Multiple Species): Rat - % Remaining after 30 min w/NADPH [5],IC50 [6],Liver Microsome Stability (Multiple Species): Monkey - % Remaining after 30 min w/NADPH [7],IC50 [8],Liver Microsome Stability (Multiple Species): Human - % Remaining after 30 min w/NADPH [9],IC50 [10],IC50 ([3]; mean) [µM],IC50 ([6]; mean) [µM],IC50 ([8]; mean) [µM],IC50 ([10]; mean) [µM],EC50 ([1]; 48 hr) [µM],EC50 ([4]; 48 hr) [µM],Compound,24 hr Dox Inducible IL2FLGluc 293FRT/TO: IL2/PD1 [6],24 hr Dox Inducible TNFaFLGluc 293FRT/TO: TNF/PD1 [10],"24 hr Dox Inducible IL2FLGluc 293FRT/TO: IL2/PD1 [6, 11]","24 hr Dox Inducible TNFaFLGluc 293FRT/TO: TNF/PD1 [10, 11]"
> 25,34.8%,0.00696 µM,0.0704,69.3%,0.00901 µM,15.4%,0.00263 µM,21.3%,0.138 µM,,,,,,,"CC(=O)N1CC(OC(=O)Nc2ccc(N3CCC[C@@H]3c3csc(NC(=O)c4cccn4Cc4ccnc(F)c4)n3)cc2)C1 [Compound A179, 1-acetylazetidin-3-yl (R)-(4-(2-(2-(1-((2-fluoropyridin-4-yl)methyl)-1H-pyrrole-2-carboxamido)thiazol-4-yl)pyrrolidin-1-yl)phenyl)carbamate]",3.4,52.3,,
> 25,50.6%,,> 25,52.6%,,52.2%,,75.8%,,1,1.35,1.08,> 25,,,"O=C(Nc1nc([C@H]2CCCN2c2ccccc2)cs1)c1cccn1Cc1cccc(Cl)c1 [Compound C122, (R)-1-(3-chlorobenzyl)-N-(4-(1-phenylpyrrolidin-2-yl)thiazol-2-yl)-1H-pyrrole-2-carboxamide]",,,1.3,>23.3
> 25,0.6%,,> 25,2.86%,,0.02%,,0.01%,,4.96,5.05,0.695,> 25,,,"O=C(Nc1nc(CCc2ccccn2)cs1)c1cccn1Cc1ccncc1 [Compound E8, N-(4-(2-(pyridin-2-yl)ethyl)thiazol-2-yl)-1-(pyridin-4-ylmethyl)-1H-pyrrole-2-carboxamide]",,,7.3,>35.9
> 25,1.19%,> 25 µM,> 25,1.88%,> 25 µM,0.92%,0.264 µM,1.83%,> 25 µM,,,,,,,"O=C(Nc1nc(/C=C/c2cnccn2)cs1)c1cccn1Cc1ccncc1 [Compound B43, (E)-N-(4-(2-(pyrazin-2-yl)vinyl)thiazol-2-yl)-1-(pyridin-4-ylmethyl)-1H-pyrrole-2-carboxamide]",>95,>94.5,,
> 25,0.36%,,> 25,2.06%,,1.33%,,0.97%,,8.17,8.24,2.18,> 25,,,"O=C(Nc1nc(Cc2ccccn2)cs1)c1cccn1Cc1ccncc1 [Compound E11, N-(4-(pyridin-2-ylmethyl)thiazol-2-yl)-1-(pyridin-4-ylmethyl)-1H-pyrrole-2-carboxamide]",,,3.8,>11.4
> 25,26.6%,,> 25,27.6%,,10.4%,,39.7%,,7.97,> 25,3.7,> 25,,,NC(=O)CCCn1cccc1C(=O)Nc1nc([C@H]2CCCN2c2ccccc2)cs1 [Compound C7],,,6.8,>6.75
> 25,29.5%,,24.3,38.8%,,9.66%,,22.6%,,13.9,7.09,5.21,> 25,,,O=C(Nc1nc([C@H]2CCCN2c2ccccc2)cs1)c1cccn1Cc1ccc(=O)[nH]c1 [Compound C10],,,1.4,>4.80
> 25,0.21%,,3.1,0.16%,,7.11%,,6.7%,,0.106,0.0705,0.0703,0.377,,,"Cc1cccnc1N1CCC[C@@H]1c1csc(NC(=O)c2cccn2Cc2ccncc2)n1 [Compound E64, (R)-N-(4-(1-(3-methylpyridin-2-yl)pyrrolidin-2-yl)thiazol-2-yl)-1-(pyridin-4-ylmethyl)-1H-pyrrole-2-carboxamide]",,,1,5.37
10.3,57.7% and 62.5%,0.566 µM and 0.543 µM,6.26,90.7% and 99.6%,2.11 µM and 1.47 µM,49% and 62.5%,0.285 µM and 0.294 µM,52.8% and 65.2%,21.6 µM and > 25 µM,,,,,7.38,5.29,"O=C(Nc1nc([C@H]2CCCN2c2ccc(OC3CNC3)cc2)cs1)c1cccn1Cc1ccnc(F)c1 [Compound A85, (R)-N-(4-(1-(4-(azetidin-3-yloxy)phenyl)pyrrolidin-2-yl)thiazol-2-yl)-1-((2-fluoropyridin-4-yl)methyl)-1H-pyrrole-2-carboxamide]",7.4 and 5,75.9 and > 85.1,,
